A value given as a limit tells only on which side of the number the result lay.

T1 sequence (P35408 whole entry): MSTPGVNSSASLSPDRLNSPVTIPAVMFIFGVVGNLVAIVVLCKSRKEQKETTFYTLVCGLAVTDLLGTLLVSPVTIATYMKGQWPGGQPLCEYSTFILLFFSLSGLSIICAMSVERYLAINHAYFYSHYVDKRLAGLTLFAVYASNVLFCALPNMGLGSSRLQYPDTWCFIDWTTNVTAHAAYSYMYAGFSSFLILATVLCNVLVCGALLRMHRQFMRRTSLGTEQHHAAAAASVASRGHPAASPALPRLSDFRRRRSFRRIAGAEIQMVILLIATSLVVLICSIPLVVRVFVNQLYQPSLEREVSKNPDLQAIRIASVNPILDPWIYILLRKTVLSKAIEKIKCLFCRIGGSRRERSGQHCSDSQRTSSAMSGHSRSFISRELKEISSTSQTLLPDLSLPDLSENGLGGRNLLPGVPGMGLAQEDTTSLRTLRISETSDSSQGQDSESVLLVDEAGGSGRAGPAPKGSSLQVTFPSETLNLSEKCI

In the first experiment the target is T1, human EP4 receptor (Homo sapiens, UniProt P35408). Put plainly: Measurement of cAMP responses by Homogeneous Time Resolved Fluorescence (Test 2). Type of experiment: cell-based. The note with it: at 10 μM; PGE2 1 nM, HEK-293 cells stably expressing human EP4. On the set-up: expressed in transfected cells. How it is done:
Test 2: Measurement of cAMP Responses by Homogeneous Time Resolved Fluorescence
cAMP measurements on HEK-293 cells that stably expressed human EP4 receptors were performed by using a system based on Homogeneous Time Resolved Fluorescense (HTRF). This technology allows the direct measurement of cAMP in living cells. The principle of this assay is based on competition between cAMP produced by cells and cAMP-d2 conjugate for the binding with monoclonal anti-cAMP-cryptate conjugate. The HTRF cAMP kit from CisBio was used according to the manufacturer's directions. The experimental procedure was performed as stated below.
Suspended cells (30,000 cells per well) were added to 96-well culture plates in 30 μl of Optimem supplemented with 500 μM IBMX. Compounds were then added in 10 μl of stimulation buffer and incubated at 25° C. for 30 minutes followed by 10 μl of PGE2 to a final concentration of 1 nM. After 30 minutes at 25° C., the reaction was stopped lysing the cells with a mixture of 25 μl of cryptate and 25 μl of cAMP-d2 prepared in the lysis buffer supplied by the manufacturer. Plates were incubated for an additional hour at room temperature and read at 665 nm/620 nm using an UltraEvolution Plate reader (Tecan).
Antagonist percentage inhibition was calculated relating compounds activity to the 0% inhibition of the wells incubated with 1 nM PGE2 alone and 100% inhibition of the wells incubated with 1 nM PGE2 plus 1 μM of the reference antagonist.
Take `Cc1ccc(-c2cccc(C#N)c2)cc1C(=O)Nc1c(C)cc(C(=O)O)cc1C` [Example 5, 4-(3′-Cyano-4-methylbiphenyl-3-ylcarboxamido)-3,5-dimethylbenzoic acid]: the “Results of Test 2 (Functional assay, antagonist % inh)” value is reported as “$ (% inh >75)”. In the case of `N#Cc1cccc(-c2ccc(Cl)c(C(=O)Nc3c(Cl)cc(C(=O)O)cc3Cl)c2)c1` [Example 18, 3,5-Dichloro-4-(4-chloro-3′-cyanobiphenyl-3-ylcarboxamido)benzoic acid], the “Results of Test 2 (Functional assay, antagonist % inh)” value is on record as “$ (% inh >75)”.

The target of a further experiment is T1, human EP4 receptor. Put plainly: Human EP4 receptor radioligand binding assay (Test 1). On the set-up: expressed in transfected cells; host or cells: HEK-293 cell membranes. Particulars: [3H]-PGE2 1 nM, transfected HEK-293 cell membranes, read-out: Results of Test 1 (Binding assay, % inh). The procedure: Test 1: Human EP4 Receptor Radioligand Binding Assay
To investigate binding properties of EP4 receptor ligands to human EP4 receptor, transfected HEK-293 cell membranes and [3H]-PGE2 (Perkin Elmer) were used. In 96-well plates the assay was carried out with a total reaction volume of 250 μl, containing 25 μl of membrane suspension (30 μg protein/well), 25 μl of [3H]-PGE2 (1 nM) in either absence or presence of 25 μl of either buffer or PGE2 (10 μM) for total and non-specific binding, respectively. Binding buffer contained 25 mM MES, 10 mM MgCl2 and 1 mM EDTA at pH 6.0. Plates were incubated at 25° C. for 120 minutes. After the incubation period, 200 μl of incubate were transferred to MultiScreen HTS, FB plates (Millipore), filtered and plates were washed 6 times with ice-cold 10 mM MES, 0.01% BSA at pH 6.0. Filters were dried and counted in a MicroBeta scintillation counter (Perkin-Elmer) using EcoScint liquid scintillation cocktail.
Percentage inhibition was calculated relating compounds activity to the 0% inhibition of the wells incubated with 1 nM [3H]-PGE2 alone (total binding) and 100% inhibition of the wells incubated with 1 nM [3H]-PGE2 plus 10 μM PGE2 (non-specific binding).
For the compound `COCCN(C)c1ccc(Cl)c(C(=O)Nc2c(Cl)cc(C(=O)O)cc2Cl)n1` [Example 53, 3,5-Dichloro-4-(3-chloro-6-((2-methoxyethyl)(methyl)amino)-picolinamido)benzoic acid], the inhibition at 10 µM was above 75%.

Take `CC(C)COc1ccc(Cl)c(C(=O)Nc2ccc(C(=O)O)cc2Cl)c1` [Example 26, 3-Chloro-4-(2-chloro-5-isobutoxybenzamido)benzoic acid]: the inhibition at 10 µM was above 75%. Still for that read-out and setting: the same measure for `CCN(CC)c1ccc(Cl)c(C(=O)Nc2c(Cl)cc(C(=O)O)cc2Cl)n1` [Example 55, 3,5-Dichloro-4-(3-chloro-6-(diethylamino)picolinamido)benzoic acid]: above 75%; for `Cc1ccc(C(=O)O)cc1NC(=O)c1cc(OCC(C)C)ccc1Cl` [Example 44, 3-(2-Chloro-5-isobutoxybenzamido)-4-methylbenzoic acid]: above 75%. In the case of `Cc1ccc(C(=O)O)cc1NC(=O)c1cc(-c2nccc(C(F)(F)F)n2)ccc1Cl` [Example 43, 3-(2-Chloro-5-(4-(trifluoromethyl)pyrimidin-2-yl)benzamido)-4-methylbenzoic acid], the inhibition at 10 µM was above 75%. On the same count and under the same terms, to `CCOc1ccc(Cl)c(C(=O)Nc2c(Cl)cc(C(=O)O)cc2Cl)c1` [Example 33, 3,5-Dichloro-4-(2-chloro-5-ethoxybenzamido)benzoic acid] belongs above 75%. Turning to `CC(C)Oc1ccc(Cl)c(C(=O)Nc2c(Cl)cc(C(=O)O)cc2Cl)c1` [Example 30, 3,5-Dichloro-4-(2-chloro-5-isopropoxybenzamido)benzoic acid], the inhibition at 10 µM was above 75%. As for `COc1cc(C(=O)O)ccc1NC(=O)c1cc(OCC(C)C)ccc1Cl` [Example 28, 4-(2-Chloro-5-isobutoxybenzamido)-3-methoxybenzoic acid], the inhibition at 10 µM was above 75%. For the compound `O=C(O)c1cc(Cl)c(NC(=O)c2nc(NCC3CC3)ccc2Cl)c(Cl)c1` [Example 50, 3,5-Dichloro-4-(3-chloro-6-(cyclopropylmethylamino)picolinamido)benzoic acid], the inhibition at 10 µM was above 75%.

For `Cc1ccc(CC2CCCCC2)cc1C(=O)Nc1c(Cl)cc(C(=O)O)cc1Cl` [Example 61, 3,5-Dichloro-4-(5-(cyclohexylmethyl)-2-methylbenzamido)benzoic acid], the inhibition at 10 µM is above 75%. On the same count and under the same terms, the same measure for `O=C(O)c1cc(Cl)c(NC(=O)c2cc(OCc3ccccc3)ccc2Cl)c(Cl)c1` [Example 29, 4-(5-(Benzyloxy)-2-chlorobenzamido)-3,5-dichlorobenzoic acid]: above 75%; for `CC(C)COc1ccc(Cl)c(C(=O)Nc2c(Cl)cc(C(=O)O)cc2Cl)n1` [Example 49, 3,5-Dichloro-4-(3-chloro-6-isobutoxypicolinamido)benzoic acid]: above 75%.

With `O=C(O)c1cc(Cl)c(NC(=O)c2nc(NC3CCCC3)ccc2Cl)c(Cl)c1` [Example 51, 3,5-Dichloro-4-(3-chloro-6-(cyclopentylamino)picolinamido)benzoic acid], the inhibition at 10 µM is above 75%. As for `CC(C)(C)COc1ccc(Cl)c(C(=O)Nc2c(Cl)cc(C(=O)O)cc2Cl)c1` [Example 34, 3,5-Dichloro-4-(2-chloro-5-(neopentyloxy)benzamido)benzoic acid], the inhibition at 10 µM is above 75%.

For the compound `CCN(C(=O)c1cc(OCc2ccc(Cl)cc2F)ccc1Cl)c1c(Cl)cc(C(=O)O)cc1Cl` [Example 70, 3,5-Dichloro-4-(2-chloro-5-(4-chloro-2-fluorobenzyloxy)-N-ethylbenzamido)benzoic acid], the inhibition at 10 µM was above 75%. On the same count and under the same terms, the same measure for `CCCCN(C)c1ccc(Cl)c(C(=O)Nc2c(Cl)cc(C(=O)O)cc2Cl)n1` [Example 54, 4-(6-(Butyl(methyl)amino)-3-chloropicolinamido)-3,5-dichlorobenzoic acid]: above 75%; for `CCN(C(=O)c1cc(OCc2ccc(F)cc2F)ccc1Cl)c1c(Cl)cc(C(=O)O)cc1Cl` [Example 69, 3,5-Dichloro-4-(2-chloro-5-(2,4-difluorobenzyloxy)-N-ethylbenzamido)benzoic acid]: above 75%.

`O=C(O)c1cc(Cl)c(NC(=O)c2cc(OCC3CCC3)ccc2Cl)c(Cl)c1` [Example 32, 3,5-Dichloro-4-(2-chloro-5-(cyclobutylmethoxy)benzamido)benzoic acid]: the inhibition at 10 µM is above 75%.

Regarding `Cc1ccc(C(=O)O)cc1NC(=O)c1cc(OCc2ccccc2)ccc1Cl` [Example 71, Sodium 3-(5-(benzyloxy)-2-chlorobenzamido)-4-methylbenzoate], the inhibition at 10 µM was above 75%.

As for `Cc1cc(C(=O)O)cc(Cl)c1NC(=O)c1cc(OCC(C)C)ccc1Cl` [Example 27, 3-Chloro-4-(2-chloro-5-isobutoxybenzamido)-5-methylbenzoic acid], the inhibition at 10 µM was above 75%. The same measure, in the same setting: to `CCCNc1ccc(Cl)c(C(=O)Nc2c(Cl)cc(C(=O)O)cc2Cl)n1` [Example 56, 3,5-Dichloro-4-(3-chloro-6-(propylamino)picolinamido)benzoic acid] belongs above 75%; to `CC(C)COc1ccc(Cl)c(C(=O)N(CC(C)C)c2c(Cl)cc(C(=O)O)cc2Cl)c1` [Example 67, 3,5-Dichloro-4-(2-chloro-5-isobutoxy-N-isobutylbenzamido)benzoic acid], above 75%; to `O=C(O)c1cc(Cl)c(NC(=O)c2cc(Cc3ccccc3)ccc2Cl)c(Cl)c1` [Example 62, 4-(5-Benzyl-2-chlorobenzamido)-3,5-dichlorobenzoic acid], above 75%. Still for that read-out and setting: the same measure for `CCN(C(=O)c1cc(OCC(C)C)ccc1Cl)c1c(Cl)cc(C(=O)O)cc1Cl` [Example 66, 3,5-Dichloro-4-(2-chloro-5-isobutoxy-N-ethylbenzamido)benzoic acid]: above 75%; for `O=C(Nc1c(F)c(F)c(C(=O)O)c(F)c1F)c1cc(OCc2ccc(F)cc2F)ccc1Cl` [Example 37, 4-(2-Chloro-5-(2,4-difluorobenzyloxy)benzamido)-2,3,5,6-tetrafluorobenzoic acid]: 45 to 75%; for `CC(C)Cc1ccc(Cl)c(C(=O)Nc2c(Cl)cc(C(=O)O)cc2Cl)c1` [Example 63, 3,5-Dichloro-4-(2-chloro-5-isobutylbenzamido)-benzoic acid]: above 75%. The same measure, in the same setting: to `COc1ccc(Cl)c(C(=O)Nc2c(Cl)cc(C(=O)O)cc2Cl)c1` [Example 31, 3,5-Dichloro-4-(2-chloro-5-methoxybenzamido)benzoic acid] belongs above 75%.

Staying with this experiment, now noted: at 10 μM; [3H]-PGE2 1 nM, transfected HEK-293 cell membranes.
Regarding `Cc1ccc(-c2cccc(C#N)c2)cc1C(=O)Nc1c(C)cc(C(=O)O)cc1C` [Example 5, 4-(3′-Cyano-4-methylbiphenyl-3-ylcarboxamido)-3,5-dimethylbenzoic acid], the “Results of Test 1 (Binding assay, % inh)” value was “# (% inh >75)”. For the compound `N#Cc1cccc(-c2ccc(Cl)c(C(=O)Nc3c(Cl)cc(C(=O)O)cc3Cl)c2)c1` [Example 18, 3,5-Dichloro-4-(4-chloro-3′-cyanobiphenyl-3-ylcarboxamido)benzoic acid], the “Results of Test 1 (Binding assay, % inh)” value is “# (% inh >75)”.

For the compound `O=C(O)c1ccc(Cl)c(NC(=O)c2cc(-c3cccc(Cl)c3)ccc2Cl)c1` [Example 41, 4-Chloro-3-(3′,4-dichlorobiphenyl-3-ylcarboxamido)benzoic acid], the “Results of Test 1 (Binding assay, % inh)” value is recorded as “# (% inh >75)”.

Regarding `Cc1c(NC(=O)c2cc(-c3cccc(Cl)c3)ccc2Cl)cccc1C(=O)O` [Example 39, 3-(3′,4-Dichlorobiphenyl-3-ylcarboxamido)-2-methylbenzoic acid], the “Results of Test 1 (Binding assay, % inh)” value was “# (% inh >75)”. The same measure, in the same setting: the same measure for `Cc1ccc(C(=O)O)cc1NC(=O)c1cc(-c2cccc(Cl)c2)ccc1Cl` [Example 40, 3-(3′,4-Dichlorobiphenyl-3-ylcarboxamido)-4-methylbenzoic acid]: “# (% inh >75)”.
